From patent US8748461B2, “Metalloenzyme inhibitor compounds” (Viamet Pharmaceuticals, Inc., priority 2011, dated 2014)
≈ marks a conversion by molar mass, not a printed value.

Legend:
[1] = test system: Septoria tritici (ATCC 26517); assay: Minimum Inhibitory Concentration (MIC) vs. Septoria tritici; type: cell-based; settings: Zymoseptoria tritici, ATCC26517, 168 h; 50% reduction in growth of S. tritici; 22° C., seven days; read-out: Septoria Rating (MIC)
Method in brief: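 Growth inhibition of S. tritici by CLSI-based filamentous-fungus microdilution, 2-fold series 16 to 0.016 μg/mL in RPMI-1640/MOPS with 2% DMSO. Inoculum approximately 5×10^4 cfu/mL; plates incubated 22° C, seven days, dark, unshaken.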

[2] = test system: Puccinia recondita tritici = Puccinia triticina; assay: Fungicidal activity vs. leaf rust on wheat plants; type: in vivo; settings: 50 ppm spray on wheat (Yuma), inoculated the following day, evaluated 7-9 days later; read-out: Puccinia Rating (% Disease Control @ 50 ppm)
Text: D. Evaluation of Fungicidal Activity Vs. Leaf Rust (Causal Agent Puccinia recondita Tritici=Puccinia triticina; Bayer code PUCCRT). […] Each pot contained 3-8 seedlings. These plants were sprayed until wet with the formulated test compounds. The compounds were formulated at 50 ppm in 10 vol. % acetone plus 90 vol. % Triton X water (deionized water 99.99 wt %+0.01 wt % Triton X100), giving a “formulated test compound.” Formulated test compounds were applied to plants using a turn table sprayer fitted with two opposing air atomization nozzles which delivered approximately 1500 L/ha of spray volume. On the following day, the leaves were inoculated with an aqueous spore suspension of Puccinia recondita tritici and the plants were kept in high humidity overnight to permit spores to germinate and infect the leaf. The plants were then transferred to a greenhouse until disease developed on untreated control plants. Disease severity was evaluated 7-9 days later, depending on the speed of disease development. In each case of Table 3, the Puccinia rating scale is as follows: […]

| Structure (SMILES) | MIC [1] [µg/mL] | pest or weed control at 50 ppm [2] [%] |
| --- | --- | --- |
| OC(Cn1cncn1)(c1ccc(F)cc1F)C(F)(F)c1ccc(OCc2cccc(F)c2F)cn1 (stereo not shown) [Compound 45, 1-(5-((2,3-Difluorobenzyl)oxy)pyridin-2-yl)-2-(2,4-difluorophenyl)-1,1-difluoro-3-(1H-1,2,4-triazol-1-yl)propan-2-ol] | ≤ 0.5 | 80 to 100 |
| OC(Cn1cnnn1)(c1ccc(F)cc1F)C(F)(F)c1ccc(OCc2ccccc2F)cn1 (stereo not shown) [Compound 46, 2-(2,4-Difluorophenyl)-1,1-difluoro-1-(5-((2-fluorobenzyl)oxy)pyridin-2-yl)-3-(1H-tetrazol-1-yl)propan-2-ol] | ≤ 0.5 | 80 to 100 |
| CC(Oc1ccc(C(F)(F)C(O)(Cn2cnnn2)c2ccc(F)cc2F)nc1)C(F)(F)F (stereo not shown) [Compound 47, 2-(2,4-Difluorophenyl)-1,1-difluoro-3-(1H-tetrazol-1-yl)-1-(5-((1,1,1-trifluoropropan-2-yl)oxy)pyridin-2-yl)propan-2-ol] | ≤ 0.5 | 80 to 100 |
| OC(Cn1cnnn1)(c1ccc(F)cc1F)C(F)(F)c1ccc(OCc2cccs2)cn1 (stereo not shown) [Compound 49, 2-(2,4-Difluorophenyl)-1,1-difluoro-3-(1H-tetrazol-1-yl)-1-(5-(thiophen-2-ylmethoxy)pyridin-2-yl)propan-2-ol] | ≤ 0.5 | 80 to 100 |
| N#Cc1ccc(COc2ccc(C(F)(F)C(O)(Cn3cnnn3)c3ccc(F)cc3F)nc2)nc1 (stereo not shown) [Compound 50, 6-(((6-(2-(2,4-Difluorophenyl)-1,1-difluoro-2-hydroxy-3-(1H-tetrazol-1-yl)propyl)pyridin-3-yl)oxy)methyl)nicotinonitrile] | ≤ 0.5 | 80 to 100 |
| N#Cc1cccc(COc2ccc(C(F)(F)C(O)(Cn3cnnn3)c3ccc(F)cc3F)nc2)c1 (stereo not shown) [Compound 52, 3-(((6-(2-(2,4-Difluorophenyl)-1,1-difluoro-2-hydroxy-3-(1H-tetrazol-1-yl)propyl)pyridin-3-yl)oxy)methyl)benzonitrile] | ≤ 0.5 | 80 to 100 |
| OC(Cn1cnnn1)(c1ccc(Cl)cc1F)C(F)(F)c1ccc(OCC2CC2)cn1 (stereo not shown) [Compound 54, 2-(4-Chloro-2-fluorophenyl)-1-(5-(cyclopropylmethoxy)pyridin-2-yl)-1,1-difluoro-3-(1H-tetrazol-1-yl)propan-2-ol] | ≤ 0.5 | 80 to 100 |
| N#Cc1ccc(COc2ccc(C(F)(F)C(O)(Cn3cnnn3)c3ccc(Cl)cc3F)nc2)cc1 (stereo not shown) [Compound 55, 4-(((6-(2-(4-Chloro-2-fluorophenyl)-1,1-difluoro-2-hydroxy-3-(1H-tetrazol-1-yl)propyl)pyridin-3-yl)oxy)methyl)benzonitrile] | ≤ 0.5 | 80 to 100 |
| N#Cc1ccc(COc2ccc(C(F)(F)C(O)(Cn3cnnn3)c3ccc(F)cc3F)nc2)c(F)c1 (stereo not shown) [Compound 57, 4-(((6-(2-(2,4-Difluorophenyl)-1,1-difluoro-2-hydroxy-3-(1H-tetrazol-1-yl)propyl)pyridin-3-yl)oxy)methyl)-3-fluorobenzonitrile] | ≤ 0.5 | 80 to 100 |
| N#Cc1ccc(F)c(COc2ccc(C(F)(F)C(O)(Cn3cnnn3)c3ccc(F)cc3F)nc2)c1 (stereo not shown) [Compound 59, 3-(((6-(2-(2,4-Difluorophenyl)-1,1-difluoro-2-hydroxy-3-(1H-tetrazol-1-yl)propyl)pyridin-3-yl)oxy)methyl)-4-fluorobenzonitrile] | ≤ 0.5 | 80 to 100 |
| N#Cc1ccc(COc2ccc(C(F)(F)C(O)(Cn3cnnn3)c3ccc(Cl)cc3F)nc2)nc1 (stereo not shown) [Compound 61, 6-(((6-(2-(4-Chloro-2-fluorophenyl)-1,1-difluoro-2-hydroxy-3-(1H-tetrazol-1-yl)propyl)pyridin-3-yl)oxy)methyl)nicotinonitrile] | ≤ 0.5 | 80 to 100 |
| N#Cc1cc(COc2ccc(C(F)(F)C(O)(Cn3cnnn3)c3ccc(F)cc3F)nc2)ccc1F (stereo not shown) [Compound 65, 5-(((6-(2-(2,4-Difluorophenyl)-1,1-difluoro-2-hydroxy-3-(1H-tetrazol-1-yl)propyl)pyridin-3-yl)oxy)methyl)-2-fluorobenzonitrile] | ≤ 0.5 | 80 to 100 |
| N#Cc1cccc(COc2ccc(C(F)(F)C(O)(Cn3cnnn3)c3ccc(F)cc3F)nc2)c1F (stereo not shown) [Compound 67, 3-(((6-(2-(2,4-Difluorophenyl)-1,1-difluoro-2-hydroxy-3-(1H-tetrazol-1-yl)propyl)pyridin-3-yl)oxy)methyl)-2-fluorobenzonitrile] | ≤ 0.5 | 80 to 100 |
| CC(C)COc1ccc(C(F)(F)C(O)(Cn2cnnn2)c2ccc(Cl)cc2F)nc1 (stereo not shown) [Compound 69, 2-(4-Chloro-2-fluorophenyl)-1,1-difluoro-1-(5-isobutoxypyridin-2-yl)-3-(1H-tetrazol-1-yl)propan-2-ol] | ≤ 0.5 | 80 to 100 |
| OC(Cn1cnnn1)(c1ccc(Cl)cc1F)C(F)(F)c1ccc(OCC(F)(F)F)cn1 (stereo not shown) [Compound 71, 2-(4-Chloro-2-fluorophenyl)-1,1-difluoro-3-(1H-tetrazol-1-yl)-1-(5-(2,2,2-trifluoroethoxy)pyridin-2-yl)propan-2-ol] | ≤ 0.5 | 80 to 100 |
| N#Cc1ccc(COc2ccc(C(F)(F)C(O)(Cn3cnnn3)c3ccc(F)cc3F)nc2)s1 (stereo not shown) [Compound 73, 5-(((6-(2-(2,4-Difluorophenyl)-1,1-difluoro-2-hydroxy-3-(1H-tetrazol-1-yl)propyl)pyridin-3-yl)oxy)methyl)thiophene-2-carbonitrile] | ≤ 0.5 | 80 to 100 |
| OC(Cn1cnnn1)(c1ccc(F)cc1F)C(F)(F)c1ccc(Oc2ccc(C(F)(F)F)cc2)cn1 (stereo not shown) [Compound 75, 2-(2,4-Difluorophenyl)-1,1-difluoro-3-(1H-tetrazol-1-yl)-1-(5-(4-(trifluoromethyl)phenoxy)pyridin-2-yl)propan-2-ol] | ≤ 0.5 | 80 to 100 |
| OC(Cn1cnnn1)(c1ccc(F)cc1F)C(F)(F)c1ccc(Oc2ccc(OC(F)(F)F)cc2)cn1 (stereo not shown) [Compound 76, 2-(2,4-Difluorophenyl)-1,1-difluoro-3-(1H-tetrazol-1-yl)-1-(5-(4-(trifluoromethoxy)phenoxy)pyridin-2-yl)propan-2-ol] | ≤ 0.5 | 80 to 100 |
| OC(Cn1cnnn1)(c1ccc(F)cc1F)C(F)(F)c1ccc(Oc2cccc(F)c2)cn1 (stereo not shown) [Compound 77, 2-(2,4-Difluorophenyl)-1,1-difluoro-1-(5-(3-fluorophenoxy)pyridin-2-yl)-3-(1H-tetrazol-1-yl)propan-2-ol] | ≤ 0.5 | 60 to 79 |
| N#Cc1cccc(Oc2ccc(C(F)(F)C(O)(Cn3cnnn3)c3ccc(F)cc3F)nc2)c1 (stereo not shown) [Compound 78, 3-((6-(2-(2,4-Difluorophenyl)-1,1-difluoro-2-hydroxy-3-(1H-tetrazol-1-yl)propyl)pyridin-3-yl)oxy)benzonitrile] | ≤ 0.5 | 80 to 100 |
| N#Cc1ccc(Oc2ccc(C(F)(F)C(O)(Cn3cnnn3)c3ccc(Cl)cc3F)nc2)cc1 (stereo not shown) [Compound 79, 4-((6-(2-(4-Chloro-2-fluorophenyl)-1,1-difluoro-2-hydroxy-3-(1H-tetrazol-1-yl)propyl)pyridin-3-yl)oxy)benzonitrile] | ≤ 0.5 | 80 to 100 |
| N#Cc1ccc(Oc2ccc(C(F)(F)C(O)(Cn3cnnn3)c3ccc(Cl)cc3F)nc2)cc1F (stereo not shown) [Compound 81, 4-((6-(2-(4-Chloro-2-fluorophenyl)-1,1-difluoro-2-hydroxy-3-(1H-tetrazol-1-yl)propyl)pyridin-3-yl)oxy)-2-fluorobenzonitrile] | ≤ 0.5 | 80 to 100 |
| N#Cc1ccc(COc2ccc(C(F)(F)C(O)(Cn3ncnn3)c3ccc(F)cc3F)nc2)cc1 (stereo not shown) [Compound 83, 4-(((6-(2-(2,4-Difluorophenyl)-1,1-difluoro-2-hydroxy-3-(2H-tetrazol-2-yl)propyl)pyridin-3-yl)oxy)methyl)benzonitrile] | 1.5 to 4 (≈ 3.1 to 8.26 µM) | 40 to 59 |
| OC(Cn1cnnn1)(c1ccc(F)cc1F)C(F)(F)c1ccc(Oc2cccc(Cl)c2)cn1 (stereo not shown) [Compound 84, 1-(5-(3-Chlorophenoxy)pyridin-2-yl)-2-(2,4-difluorophenyl)-1,1-difluoro-3-(1H-tetrazol-1-yl)propan-2-ol] | ≤ 0.5 | 80 to 100 |
| COc1cccc(Oc2ccc(C(F)(F)C(O)(Cn3cnnn3)c3ccc(F)cc3F)nc2)c1 (stereo not shown) [Compound 85, 2-(2,4-Difluorophenyl)-1,1-difluoro-1-(5-(3-methoxyphenoxy)pyridin-2-yl)-3-(1H-tetrazol-1-yl)propan-2-ol] | ≤ 0.5 | 80 to 100 |
| OC(Cn1cnnn1)(c1ccc(F)cc1F)C(F)(F)c1ccc(Oc2ccc(F)c(F)c2)cn1 (stereo not shown) [Compound 86, 1-(5-(3,4-Difluorophenoxy)pyridin-2-yl)-2-(2,4-difluorophenyl)-1,1-difluoro-3-(1H-tetrazol-1-yl)propan-2-ol] | ≤ 0.5 | 80 to 100 |
